The values that follow come from patent US10045940B2, “Composition comprising an antibiotic and a corticosteroid” (Intervet Inc., priority 2008, dated 2018).

Structures are written as SMILES.

This data set is described as follows: Storage stability of the formulation of Table 1 (prior formulation without fatty acid). To be noted: in the formulation of Table 1. Type of data set: physicochemical. The method, then: Applicants have observed an increase in at least one mometasone degradation product over time when the above formulation is stored at room temperature. […] The formation of the degradation product generally can be minimized by storing the formulation at colder temperatures (e.g., 5° C.). There is, however, a need for a formulation that can remain stable at greater temperatures (e.g., room temperature). This invention provides such a formulation.

Consider `C[C@@H]1CN(c2c(F)c(F)c3c(=O)c(C(=O)O)cn(C4CC4)c3c2F)C[C@H](C)N1` [orbifloxacin], for which the “Effect of the orbifloxacin in the formulation on formation of the mometasone degradation product” value is “accelerates the formation of the degradation product”.
